Data set [1] concerns thrombus formation in the jugular vein. Nature of the data set: I 125 fibrinogen technique, damaged jugular vein (venous thrombosis), continuous infusion. It is filed as in vivo, rabbits. Here is the method:
The anti venous thrombotic effect of sodium bisulfite is evaluated in rabbits by using I ^125 fibrinogen technique as described in an article in "Archives of Surgery" Vol. 104, pg. 152 (1972).
The rabbit was continuously infused with aqueous sodium bisulfite solution at the rate of […]. (5.154 gram per hour) (animal body weight 2.3 kg) for a time of five hours. After 5 hours, the animal was sacrificed and the radioactive fibrinogen accumulated in the damaged jugular vein was determined. The radioactivity on the contra-lateral (undamaged) jugular vein was also determined to serve as a control. Concurrently, another rabbit had experienced the same procedure but received only a standard sodium chloride solution as a control. The rabbit from the normal saline solution has seven times as much radioactivity as his counterpart infused with sodium bisulfite.
Two jugular veins on a normal, healthy rabbit are exposed and one of the veins is systematically damaged by clamping in two longitudinally spaced places. The rabbit is then continuously infused with aqueous sodium formaldehyde bisulfite at the rate of […] (5.154 gram per hour) (animal body weight 2.3 kg). The rabbit is then injected with fibrinogen labeled with I^125. After 5 hours, the damaged jugular vein is evaluated for radioacive count with a Geiger counter.
This iodine 125 evaluation technique is described by Kakkar in Archieves of Surgery, Vol. 104, pg. 152 (1972) and by Kelton, J.G. et al, Journal of Clinical Investigation, Vol. 62, pgs. 892-895, (1978). […] Other rabbits, similarly evaluated, died, apparently because of overdose by the infustion technique.

For another data set, the system named is rabbit plasma. Description: Blood coagulation tests (PT, PTT, coagulation factors) in vitro. It counts as biochemical. Particulars: rabbit plasma in vitro, 0.5 mg/ml. An excerpt: The alkali metalbisulfites, sodium and potassium, and ammonium bisulfite are found to prolong PT and PTT in a dose-related fashion.
The Solution I is found to prolong PT and PTT in a dose related fashion. […] The agent is active in inhibiting various coagulation factors, including factors VII, IX, X, XI, and XII.

A further data set deals with T1, F VII (Homo sapiens, UniProt P08709).
T1 construct: from tissue; host or cells: human plasma
T1 sequence (P08709 61-466): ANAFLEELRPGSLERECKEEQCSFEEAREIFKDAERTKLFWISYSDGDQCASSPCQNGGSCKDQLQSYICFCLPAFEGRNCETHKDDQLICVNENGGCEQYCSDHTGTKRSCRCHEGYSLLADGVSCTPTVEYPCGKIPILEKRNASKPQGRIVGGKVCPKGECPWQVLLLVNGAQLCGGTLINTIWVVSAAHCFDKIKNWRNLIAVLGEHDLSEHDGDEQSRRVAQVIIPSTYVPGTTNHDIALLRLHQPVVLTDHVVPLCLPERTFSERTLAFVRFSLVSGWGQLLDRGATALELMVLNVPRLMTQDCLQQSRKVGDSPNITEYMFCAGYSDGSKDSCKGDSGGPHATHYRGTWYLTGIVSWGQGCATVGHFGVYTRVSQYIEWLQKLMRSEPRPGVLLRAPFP
Description: Coagulation factor assay (Biggs): Factor VII. To be noted: in vitro. It counts as biochemical. Here is the method:
(§1) The effect of U.S.P. grade sodium bisulfite on blood coagulation factors is evaluated by standard procedures (Biggs) and the results are shown in Table III below.
(§2) References for PT, PTT, and assays of all the coagulation factors can be found in a standard textbook, entitled "Human Blood Coagulation, Haemostasis and Thrombosis", edited by Rosemary Biggs, published by Blackwell Scientific Publications, Oxford, England (2nd edition), pages 670-705, 1976.

The target in a further data set is T2, F XII (Homo sapiens, UniProt P00748).
T2 construct: from tissue; host or cells: human plasma
T2 sequence (P00748 20-615): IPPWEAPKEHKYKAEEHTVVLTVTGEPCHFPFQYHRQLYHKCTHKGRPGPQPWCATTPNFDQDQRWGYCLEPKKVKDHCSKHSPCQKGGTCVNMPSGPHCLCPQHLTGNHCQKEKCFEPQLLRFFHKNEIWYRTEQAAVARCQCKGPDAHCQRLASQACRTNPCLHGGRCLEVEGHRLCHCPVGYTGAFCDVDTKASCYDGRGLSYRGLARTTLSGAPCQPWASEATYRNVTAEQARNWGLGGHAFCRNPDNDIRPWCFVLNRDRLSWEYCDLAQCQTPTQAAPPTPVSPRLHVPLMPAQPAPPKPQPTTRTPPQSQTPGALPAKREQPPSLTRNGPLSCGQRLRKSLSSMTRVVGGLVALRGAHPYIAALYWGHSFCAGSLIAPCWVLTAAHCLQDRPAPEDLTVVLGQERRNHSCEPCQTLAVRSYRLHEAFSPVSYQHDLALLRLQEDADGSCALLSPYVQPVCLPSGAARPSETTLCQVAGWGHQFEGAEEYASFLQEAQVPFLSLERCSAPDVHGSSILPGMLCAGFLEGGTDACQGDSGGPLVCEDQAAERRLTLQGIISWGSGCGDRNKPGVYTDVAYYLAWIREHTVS
Nature of the data set: Coagulation factor assay (Biggs): Factor XII. It is filed as biochemical. Particulars: in vitro. The procedure: as §1, §2

The target in another data set is T3, F IX (Homo sapiens, UniProt P00740).
T3 construct: from tissue; host or cells: human plasma
T3 sequence (P00740 47-461): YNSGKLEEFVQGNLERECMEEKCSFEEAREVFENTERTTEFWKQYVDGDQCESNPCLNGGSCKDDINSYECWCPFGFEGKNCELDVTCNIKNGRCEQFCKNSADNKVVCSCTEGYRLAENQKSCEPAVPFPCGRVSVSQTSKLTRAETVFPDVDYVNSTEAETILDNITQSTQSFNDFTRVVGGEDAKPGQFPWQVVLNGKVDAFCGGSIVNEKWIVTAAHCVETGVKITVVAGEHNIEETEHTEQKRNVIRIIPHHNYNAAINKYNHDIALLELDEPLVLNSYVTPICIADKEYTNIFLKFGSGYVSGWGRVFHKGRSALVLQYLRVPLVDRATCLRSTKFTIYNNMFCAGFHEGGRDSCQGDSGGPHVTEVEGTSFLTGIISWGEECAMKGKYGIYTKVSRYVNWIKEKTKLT
Description: Coagulation factor assay (Biggs): Factor IX. It is filed as biochemical. To be noted: for inhibition of coagulation factor IX: in vitro; for Factor IX (%): single experiment, control 50. Here is the method:
as §1, §2

Data set [2] has as its system human plasma. It counts as biochemical.
Data set [3] deals with human plasma. It is filed as biochemical. The source holds these as a separate data set.
Another data set concerns the target T4, F XI (Homo sapiens, UniProt P03951).
T4 construct: from tissue; host or cells: human plasma
Description: Coagulation factor assay (Biggs): Factor XI. It counts as biochemical. Particulars: in vitro. Here is the method: as §1, §2

The next data set concerns the target T5, F X (Homo sapiens, UniProt P00742).
T5 construct: from tissue; host or cells: human plasma
Nature of the data set: Coagulation factor assay (Biggs): Factor X. It is filed as biochemical. Particulars: in vitro. Here is the method: as §1, §2

The mark [4] stands for this setting: continuous infusion for five hours.

Read-outs that look alike come from different tables or passages of the source.

T4 sequence (P03951 19-625): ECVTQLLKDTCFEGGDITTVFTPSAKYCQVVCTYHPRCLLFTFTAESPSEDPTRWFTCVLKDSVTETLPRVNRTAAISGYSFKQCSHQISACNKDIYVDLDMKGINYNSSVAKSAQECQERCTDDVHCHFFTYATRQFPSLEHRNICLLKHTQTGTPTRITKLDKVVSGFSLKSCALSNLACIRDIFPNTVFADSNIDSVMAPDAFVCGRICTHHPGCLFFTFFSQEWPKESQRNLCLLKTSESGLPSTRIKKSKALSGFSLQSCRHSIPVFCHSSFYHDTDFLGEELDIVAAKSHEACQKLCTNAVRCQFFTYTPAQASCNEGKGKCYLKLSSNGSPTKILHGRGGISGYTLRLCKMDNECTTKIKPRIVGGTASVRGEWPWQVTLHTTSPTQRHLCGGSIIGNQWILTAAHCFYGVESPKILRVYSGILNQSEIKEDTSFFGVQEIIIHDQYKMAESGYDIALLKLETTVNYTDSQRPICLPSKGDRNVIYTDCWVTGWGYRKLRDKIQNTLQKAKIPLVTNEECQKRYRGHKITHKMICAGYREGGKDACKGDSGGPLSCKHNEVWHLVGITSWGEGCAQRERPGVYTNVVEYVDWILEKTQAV
T5 sequence (P00742 41-488): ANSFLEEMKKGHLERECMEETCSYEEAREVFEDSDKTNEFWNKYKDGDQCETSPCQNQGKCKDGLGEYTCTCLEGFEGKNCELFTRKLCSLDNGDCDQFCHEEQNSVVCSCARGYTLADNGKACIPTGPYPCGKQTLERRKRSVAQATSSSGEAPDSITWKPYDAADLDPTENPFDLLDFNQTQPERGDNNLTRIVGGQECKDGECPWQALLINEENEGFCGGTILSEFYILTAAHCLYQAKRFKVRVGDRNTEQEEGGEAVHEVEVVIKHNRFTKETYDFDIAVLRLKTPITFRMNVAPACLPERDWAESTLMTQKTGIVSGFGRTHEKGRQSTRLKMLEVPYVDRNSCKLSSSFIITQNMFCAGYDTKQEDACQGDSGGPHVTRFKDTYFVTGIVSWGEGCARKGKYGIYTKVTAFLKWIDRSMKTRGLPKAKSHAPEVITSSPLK

`CCN(CC)CC.O=S(O)O` [TRIETHYL AMINE BISULFITE, triethyl amine bisulfite]: in data set [1] (setting [4]), the “radioactivity (I 125 fibrinogen) in damaged jugular vein of saline control rabbit relative to treated rabbit” value was “seven times” and the “thrombus formation in the jugular vein (conclusion in words)” value is “definite positive antithrombotic effect”. Also, the “PT and PTT (effect in words)” value in the data set on rabbit plasma is on record as “significantly prolong”. Besides, the “inhibition of coagulation factor VII” value against F VII was “active”. The “inhibition of coagulation factor XII” value against F XII is given as “active”. On F IX, the “inhibition of coagulation factor IX” value was “active” and the “Factor IX (%)” value is 14%. Besides, in the data set on human plasma [2], the “MEAN LSD (PT)” value was 21.3 ± 3.0 s, the “PT (effect in words)” value is on record as “significantly prolong”, the “PT(Sec) […]. 1” value came to 23.3 s and the “PT(Sec) […]. 2” value is 25.3 s. Besides, in the data set on human plasma [2], the “PT(Sec) […]. 3” value worked out at 18.5 s, the “PT(Sec) […]. 4” value came out at 18.9 s and the “PT(Sec) […].5” value was found to be 20.4 s. Besides, in the data set on human plasma [3], the “MEAN LSD (PTT)” value is 73.1 ± 8.3 s, the “PTT (effect in words)” value is given as “significantly prolong”, the “PTT(Sec) […]. 1” value turned out to be 24.7 s and the “PTT(Sec) […]. 2” value came out at 86.3 s. Also, in the data set on human plasma [3], the “PTT(Sec) […]. 3” value was 64.2 s, the “PTT(Sec) […]. 4” value came out at 71.2 s and the “PTT(Sec) […].5” value was found to be 68.9 s. Moreover, the “inhibition of coagulation factor XI” value against F XI is reported as “active”. Besides, the “inhibition of coagulation factor X” value against F X is “active”.

For `C[N+](C)(C)C` [Tetramethyl-ammonium bisulfite], in data set [1] (continuous infusion), the “mortality of infused rabbits” value is listed as “death of the rabbit”. Besides, the “PT and PTT (effect in words)” value in the data set with rabbit plasma is “significantly prolong”. For the same compound, the “inhibition of coagulation factor VII” value at F VII is reported as “active”. The “inhibition of coagulation factor XII” value on F XII is listed as “active”. Besides, at F IX, the “inhibition of coagulation factor IX” value is “active” and the “Factor IX (%)” value amounted to 12.5%. Further, the PT sec. with human plasma [2] was 21.7 s. Moreover, the “PT (effect in words)” value in the data set on human plasma [2] (in vitro, 0.5 mg/ml) is on record as “significantly prolong”. For the same compound, the “PTT (effect in words)” value in the data set with human plasma [3] (in vitro, 0.5 mg/ml) is reported as “significantly prolong”. In addition, on F XI, the “inhibition of coagulation factor XI” value is on record as “active”. Also, the “inhibition of coagulation factor X” value against F X was “active”.

These data come from EP0043274A2, “Antithrombotic treatment” (priority 1980, dated 1982).
